The values below come from patent US20190054109A1, “An antiviral composition and a method for application thereof” (ALLA CHEM, LLC, priority 2017, published 2019).

Like-named read-outs stand apart in the source and are kept apart here. Marks after values point to notes of the source that are not given here.

One data set can be described thus: physchem. To be noted: simulated gi fluid. The procedure:
(§1) Evaluation of stability in biological matrix for compositions comprising the prodrug of formula 1.1. Initial compositions comprising the prodrug of formula 1.1 (the tested compounds) were prepared with a concentration of 10 mM in DMSO. From said compositions, 100-fold working solutions were prepared with a concentration of 100 μM in a mixture of acetonitrile: water with a volumetric ratio of 1:1.
The tested composition comprising the prodrug of formula 1.1 in a final concentration of 1 μM was incubated in artificial gastric juice (0.2% NaCl in 0.7% v/v HCl) and artificial intestinal juice (0.05M KH2PO4, pH 6.75). The incubation was performed in a Vortemp56 shaking incubator at 37° C. with stirring at a rate of 300 rev/min. […] The samples were then centrifuged, and the supernatant (150 μl) was sampled for analysis […]. The incubation was performed in two replicates, with each sample measured twice.
Samples were analyzed using an HPLC-MS/MS technique developed for each tested prodrug, wherein the chromatographic system 1290 Infinity II (Agilent Technologies) was combined with the tandem mass spectrometer QTRAP5500 (AB Sciex). When developing conditions for mass-spectrometric detection, the solutions of tested compounds in a mixture of acetonitrile-water (1:1) with a concentration of 100 ng/ml were injected directly into the mass spectrometer using a syringe pump with electrospray ionization carried out in a positive ion mode. Scanning in a total ion current mode (MS1) allowed us to identify a molecular ion for each compound, and basic product ions were recorded in MS2 mode. Then, to attain maximum sensitivity, the MS/MS technique was optimized in MRM mode. In quantitative chromatogram processing, the most intensive MRM transition was used for the analyte and the internal standard. Separation was carried out by means of linear gradient elution chromatography on a YMC Triart C18 column (50×2 mm, 1.9 μm) in a mobile phase consisting of 0.1% formic acid in water and 0.1% formic acid in acetonitrile. Tolbutamide (Fluka) was used as the internal standard.
Half-life (T1/2) was found from the kinetics of tested prodrug elimination in an antiviral composition during incubation in a biological matrix. The computations were based on the values of chromatographic peak areas for compounds in test samples normalized to the internal standard signal. From linear dependence of log normalized areas of chromatographic peaks on time, the constant of elimination rate was calculated (k is linear section slope).

A short description of a further data set: in vitro. As to conditions: human, plasma. The procedure: as §1
The incubation was performed in a Vortemp56 shaking incubator at 37° C. with stirring at a rate of 300 rev/min. […] The samples were then centrifuged, and the supernatant (150 μl) was sampled for analysis […]. The incubation was performed in two replicates, with each sample measured twice.
Samples were analyzed using an HPLC-MS/MS technique developed for each tested prodrug, wherein the chromatographic system 1290 Infinity II (Agilent Technologies) was combined with the tandem mass spectrometer QTRAP5500 (AB Sciex). […] Scanning in a total ion current mode (MS1) allowed us to identify a molecular ion for each compound, and basic product ions were recorded in MS2 mode. […] In quantitative chromatogram processing, the most intensive MRM transition was used for the analyte and the internal standard. […]

In another data set the test system is gT1b NS5B HCV. As to conditions: cited from earlier work; for EC50: from hcvdruginfo.ca.
For data set [1], the system named is Huh7 human hepatocellular carcinoma cell line. To be noted: cited from earlier work.
The test system of data set [2] is six HCV genotypes (gT1-gT6). To be noted: cited from earlier work.
The conditions of data set [3]: from Sofia et al. J. Med. Chem. 2010, cited from earlier work.
The conditions of data set [4]: from Sofia et al. J. Med. Chem. 2010, cited from earlier work. The source holds these as a separate data set.
The conditions of data set [5]: from Sofia et al. J. Med. Chem. 2010, cited from earlier work. The source holds these as a separate data set.

The half-life is the time in which the quantity being followed falls by half. High values mean slow decline, low ones rapid decline. In the case of `C[C@H](N[P@@](=O)(OC[C@H]1O[C@@H](n2ccc(=O)[nH]c2=O)[C@](C)(F)[C@@H]1O)Oc1ccccc1)C(=O)OC1CCC1` [Prodrug 1.2, cyclobutyl (S)-2-((R)-(((2R,3R,4R,5R)-5-(2,4-dioxo-3,4-dihydropyrimidin-1(2H)-yl)-3-hydroxy-4-methyl-4-fluoro-tetrahydrofuran-2-yl)methoxy)-(phenoxy)-phosphorylamino)-propanoate], the half-life at 1 μM in the data set “physchem” (T1/2 SGF, artificial gastric juice, 37° C.) was 12.7 to 15 h; in the data set “physchem” (pH 6.75) it was over 24 h; in the data set “in vitro”, over 24 h.
By EC90 is commonly meant the concentration needed for an effect of 90%. By EC50 is commonly meant the concentration giving half of the maximal effect. Usually CC50 stands for the concentration at which the toxic effect on the cells reaches its halfway point. Consider `CC(C)OC(=O)[C@H](C)N[P@](=O)(OC[C@H]1O[C@@H](n2ccc(=O)[nH]c2=O)[C@](C)(F)[C@@H]1O)Oc1ccccc1` [Sovaldi®, Sofosbuvir], for which the concentration for an effect of 90% (EC90) was 590 nM in the data set on gT1b NS5B HCV (HCV genotype 1b (gT1b)) and 520 nM in the data set on gT1b NS5B HCV (gT1b HCV, 10% FBS, from Sofia et al. J. Med. Chem. 2010). Besides, the EC50 is 45 to 170 nM in the data set with gT1b NS5B HCV (HCV genotype 1b (gT1b)) and 45 to 170 nM with gT1b NS5B HCV (gT1b HCV, 10% FBS). For the same compound, the CC90 in data set [1] (10% FBS, from Sofia et al. J. Med. Chem. 2010) was over 100000 nM. Further, the CC50 in data set [1] (Huh7, Table 2 marks the value as from Sofia et al.) is over 100000 nM. Also, the “efficiency in clinical trials” value in data set [2] is “high efficiency”. Further, the “T1/2 SGF” value in data set [3] was 12.7 to 15 h; in data set [3] (listed as Sovaldi ®), 22.0* h. Also, the results for the “T1/2 SIF” value in data set [4] and in data set [4] (listed as Sovaldi ®) were over 24 h and >24* h, respectively. The “T1/2 Human plasma” value in data set [5] was over 24 h; in data set [5] (listed as Sovaldi ®) it was >24* h.
